Laboratory results: patent US12077608B2, “Stapled H2 pyrin peptides” (H. LEE MOFFITT CANCER CENTER AND RESEARCH INSTITUTE, INC., priority 2018, dated 2024)
Where two headings read alike, the source gives them in different places. Bridge positions count the residues as written; N and C are the ends. Square brackets hold non-standard residues; d marks the D form. Ends that are not written are not given here. Peptide text beside a SMILES is read from it. * marks the point of attachment. FITC = O=C1OC2(c3ccc(O)cc3Oc3cc(O)ccc32)c2ccc(NC(=S)*)cc21; S5 = C=CCCC[C@](C)(N)C(=O)O; Nle = CCCC[C@H](N)C(=O)O; βAla = NCCC(=O)O

Columns and labels:
[1] = Circular dichroism (CD) secondary structure of the peptides; type: physicochemical; settings: aqueous solution; 100 μM peptide in 10 mM potassium phosphate, 100 mM potassium fluoride buffer (pH=7.5)
Procedure: Circular dichroism (CD) was used to determine the secondary structure of the peptides. […] Hydrocarbon stapling promoted α-helix contents with SAH-POP1-4 and SAH-POP1-8 having the highest in aqueous solution.
CD spectra were recorded on an AVIV Model 215 Circular Dichroism Spectrometer. Each spectrum was collected with the wavelength between 190 to 260 nm, 0.5 nm increments, and 0.5 s averaging time using a 1-mm path length cell. The peptide concentration was 100 μM in 10 mM potassium phosphate and 100 mM potassium fluoride buffer (pH=7.5). The studied peptides were completely dissolved in this buffer. CD spectra were initially plotted as wavelength versus millidgree, the default output of the instrument. Once the precise peptide concentration was confirmed, the mean residue ellipticity [Θ] was calculated for the y-axis.

[2] = tested on: ASC speck formation in THP-1 ASC-GFP cells; assay: ASC speck assay, live-cell imaging; type: cell-based, Human; settings: 20 μM peptide; nigericin-activated THP-1 ASC-GFP cells
Procedure: ASC speck is a hallmark of inflammasome formation (Dick et al., 2016; Hoss et al., 2017) and observable by microscopy (Doyle et al., 2012; Stutz et al., 2013). THP-1 ASC-GFP cells stably expressing the ASC-GFP fusion protein (InvivoGen Catalog #: thp-ascgfp) were used to visualize the inhibitory effect of SAH-POP1-4 on ASC specks formation (Fernandes-Alnemri et al., 2007).
Experimental Procedure for ASC Speck Assay. THP1 ASC-GFP cells were seeded at 2×10^6/ml (0.7-1 mL) in RPMI1640 medium with 10% FCS in FluoroDish (FD35-100) and cultivated in the presence of 50 nM phorbol-12-myristate-13-acetate (PMA) for 24 h, then media was replaced by fresh media and incubated for 24 h. Then cells were stimulated with 200 ng/ml LPS from E. coli (sigma) for 3 h. The media was removed and replaced with serum-free medium (OptiMEM) containing DMSO (1:1,000), 20 μM inhibitors for 30 min. […] Control samples were incubated with media lacking LPS or nigericin. Then, ASC specks were tested by confocal microscopy SP8 (Leica Microsystems).
ASC speck is the hallmark of inflammasome formation and observable by microscopy. THP-1 ASC-GFP cells stably expressing the ASC-GFP fusion protein (InvivoGen Catalog #: thp-ascgfp) were used to visualize the inhibitory effect of SAH-POP1-17 on ASC specks formation (Fernandes-Alnemri et al., 2007). […] SAH-POP1-17 at 5 μM inhibited ASC speck formation to 4%, and SAH-POP1-18 at 5 μM inhibited ASC speck formation to 8%.

[3] = tested on: caspase-1 activity in Human THP-1 monocytes; assay: Promega Caspase-Glo 1 Inflammasome Assay (cell-based bioluminescent caspase-1 activity assay); settings: for inhibited caspase-1 activities: 5 μM inhibitor, PMA-differentiated THP-1, LPS and nigericin stimulated
Excerpt: Promega Caspase-Glo™ 1 Inflammasome Assay. A cell-based bioluminescent caspase-1 activity assay (O'Brien et al., 2017) (Promega Caspase-Glo™ | Inflammasome Assay Kit G9951) was used to evaluate the inhibitory activity of SAH-POP1-4 and SAH-POP1-8 on inhibition of inflammasome formation and caspase-1 activation. Human THP-1 monocytes were differentiated with phorbol 12-myristate 13-acetate (PMA), and treated sequentially with lipopolysaccharide (LPS), a Toll-like receptor 4 (TLR4) agonist, and nigericin, a K^+ ionophore to promote K^+ efflux, resulting in NLRP3- and ASC-dependent caspase-1 activation. The cells were then treated with the inhibitors. […] Experimental Procedure for Promega caspase-Glo™ 1 Inflammasome Assay: THP1 cells were seeded at 5×10^5/ml in RPMI1640 medium with 10% FCS in 96-well plates and cultivated in the presence of 50 nM phorbol-12-myristate-13-acetate (PMA) for 24 h. Then the media was replaced with fresh media and incubated for 24 h. The cells were stimulated with 200 ng/ml LPS in E. coli (Sigma) for 3 h. The media was removed and replaced with serum-free media (OptiMEM) containing DMSO (1:1,000), 5 μM inhibitors for 30 min. Cells were then stimulated with the inflammasome activators: 5 μM nigericin 2 h. Control samples were incubated with medium lacking LPS or nigericin. Then the activity of the active caspase-1 was measured by Caspase-Glo™ 1 inflammasome assay (Promega). A cell-based bioluminescent caspase-1 activity assay (Promega Caspase-Glo™ 1 Inflammasome Assay Kit G9951) was used to evaluate the inhibitory activity of SAH-POP1-17 and SAH-POP1-18 on inhibition of inflammasome formation and caspase-1 activation. Human THP-1 monocytes were differentiated with phorbol 12-myristate 13-acetate (PMA), and treated sequentially with lipopolysaccharide (LPS), a Toll-like receptor 4 (TLR4) agonist, and nigericin, a K^+ ionophore to promote K^+ efflux, resulting in NLRP3- and ASC-dependent caspase-1 activation. The cells were then treated with the inhibitors. […] Experimental Procedure for Promega caspase-Glo™ 1 Inflammasome Assay: THP1 cells were seeded at 5×10^5/ml in RPMI1640 medium with 10% FCS in 96-well plates and cultivated in the presence of 50 nM phorbol-12-myristate-13-acetate (PMA) for 24 h. Then the media was replaced with fresh media and incubated for 24 h. The cells were stimulated with 200 ng/ml LPS in E. coli (Sigma) for 3 h. The media was removed and replaced with serum-free media (OptiMEM) containing DMSO (1:1,000), 5 μM inhibitors for 30 min. Cells were then stimulated with the inflammasome activators: 5 μM nigericin 2 h. Control samples were incubated with medium lacking LPS or nigericin. Then the activity of the active caspase-1 was measured by Caspase-Glo™ 1 inflammasome assay (Promega).

GST-NLRP3^PYD = target: T1, GST-NLRP3^PYD (Homo sapiens, UniProt Q96P20); assay: KD (μM) | GST-NLRP3^PYD
T1 construct: human NLRP3 (residues 3-110) was cloned into a pET-21b vector; made in house; host or cells: E. coli BL21 DE3
T1 sequence (Q96P20 3-110): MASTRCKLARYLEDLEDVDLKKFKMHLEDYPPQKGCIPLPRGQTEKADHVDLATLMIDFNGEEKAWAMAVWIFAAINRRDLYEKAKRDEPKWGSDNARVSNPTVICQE
Excerpt: Table printed on a drawing sheet, FIG. 10
Head of the field: KD (μM) | GST-NLRP3^PYD
The patent's description of the figure: FIG. 10 is a table showing the results from a fluorescence anisotropy binding assay to determine the accurate binding affinities of stapled peptides fPOP1-H2 (SEQ ID NO: 2), fSAH-POP1-1 (SEQ ID NO: 1), fSAH-POP1-3 (SEQ ID NO: 3), fSAH-POP1-4 (SEQ ID NO: 4), fSAH-POP1-5 (SEQ ID NO: 5), fSAH-POP1-6 (SEQ ID NO: 6), fSAH-POP1-7 (SEQ ID NO: 7), fSAH-POP1-8 (SEQ ID NO: 8), fSAH-POP1-9 (SEQ ID NO: 9), fSAH-POP1-10 (SEQ ID NO: 10), fSAH-POP1-11 (SEQ ID NO: 11), fSAH-POP1-12 (SEQ ID NO: 12), fSAH-POP1-13 (SEQ ID NO: 13), fSAH-POP1-14 (SEQ ID NO: 14), fSAH-POP1-15 (SEQ ID NO: 15), fSAH-POP1-16 (SEQ ID NO: 16), fSAH-POP1-17 (SEQ ID NO: 17), fSAH-POP1-18 (SEQ ID NO: 18), fSAH-POP1-19 (SEQ ID NO: 19), fSAH-POP1-20 (SEQ ID NO: 20), fSAH-POP1-21 (SEQ ID NO: 21), fSAH-POP1-22 (SEQ ID NO: 22), fSAH-POP1-23 (SEQ ID NO: 23), fSAH-POP1-24 (SEQ ID NO: 24), fSAH-POP1-25 (SEQ ID NO: 25), fSAH-POP1-26 (SEQ ID NO: 26), fSAH-POP1-27 (SEQ ID NO: 27), fSAH-POP1-28 (SEQ ID NO: 28), fSAH-POP1-29 (SEQ ID NO: 29), fSAH-POP1-30 (SEQ ID NO: 30), fSAH-POP1-31 (SEQ ID NO: 31).
First copying reader's note: In the structures S5, NL (N with lowered L) and NH2 carry lowered signs, a drawn bracket joins the two S5 residues (staple), and the SEQ ID NO column is printed outside the table frame. […]

Compound	α-helical structure / α-helix contents by circular dichroism [1]	inhibition of ASC speck formation [2]	cell permeability [3]	inhibited caspase-1 activities [3] [%]	cell permeability ([3]; THP-1 cells, inferred from caspase-1 assay)	Kd (GST-NLRP3^PYD) [µM]
SAH-POP1-4: hydrocarbon stapled peptide, amino acid sequence ES5LKKS5KMKLGTV (E[S5]LKK[S5]KMKLGTV-NH2; staple 2-6; N-terminus assumed; SMILES CSCC[C@H](NC(=O)[C@H](CCCCN)NC(=O)[C@]1(C)CCCC=CCCC[C@](C)(NC(=O)[C@@H](N)CCC(=O)O)C(=O)N[C@@H](CC(C)C)C(=O)N[C@@H](CCCCN)C(=O)N[C@@H](CCCCN)C(=O)N1)C(=O)N[C@@H](CCCCN)C(=O)N[C@@H](CC(C)C)C(=O)NCC(=O)N[C@H](C(=O)N[C@H](C(N)=O)C(C)C)[C@@H](C)O)	highest	completely inhibited	cell permeable	43		
CCCC[C@H](NC(=O)[C@H](CCCCN)NC(=O)[C@]1(C)CCCC=CCCC[C@](C)(NC(=O)[C@@H](N)CCC(=O)O)C(=O)N[C@@H](CC(C)C)C(=O)N[C@@H](CCCCN)C(=O)N[C@@H](CCCCN)C(=O)N1)C(=O)N[C@@H](CCCCN)C(=O)N[C@@H](CC(C)C)C(=O)NCC(=O)N[C@H](C(=O)N[C@@H](C)C(N)=O)[C@@H](C)O [SAH-POP1-8] (H-E[S5]LKK[S5]K[Nle]KLGTA-NH2; staple 2-6; N-terminus assumed)	highest			41	cell permeable	
CCCC[C@H](NC(=O)[C@H](CCCCN)NC(=O)[C@H](Cc1ccccc1)NC(=O)[C@H](CCCCN)NC(=O)[C@H](CCCCN)NC(=O)[C@H](CC(C)C)NC(=O)[C@H](CCC(=O)O)NC(=O)[C@H](CCC(=O)O)NC(=O)CCNC(=S)Nc1ccc2c(c1)C(=O)OC21c2ccc(O)cc2Oc2cc(O)ccc21)C(=O)N[C@@H](CCCCN)C(=O)N[C@@H](CC(C)C)C(=O)NCC(=O)N[C@H](C(=O)N[C@H](C(N)=O)C(C)C)[C@@H](C)O [fPOP1-H2] ({FITC-βAla}-EELKKFK[Nle]KLGTV-NH2)						27 ± 2.3
